According to US20260167662A1, “MODIFIED […] GUANIDINO STRUCTURE IN BRIDGED PART AND METHOD FOR PRODUCING OLIGO[…] SAME” (LUXNA BIOTECH CO., LTD., priority 2022, published 2026):

Assay: Stability test of amidite: 0.1 M solution in acetonitrile stored in the dark at room temperature, analysed by UHPLC
Format: physicochemical
Settings: 0.1 M in acetonitrile
Description: • Device used: ACQUITY Arc UHPLC system manufactured by Waters Corporation • Column: Xbridge BEH C18, 2.5 μm, 3.0×100 mm, Column XP manufactured by Waters Corporation • Mobile phase: Gradient
• Flow rate: 0.85 mL/min • Detection: PDA (200 to 400 nm) • Column temperature: 30° C. • Analysis time: 10.00 min
The amidite a3 (purity was 96.3%) obtained in Example 1, and an amidite a3′ (purity was 90.9%) synthesized according to the method described in Patent Document 5 were each dissolved in acetonitrile to prepare a 0.1 M solution.
Of the two 0.1 M solutions obtained, the solution containing the amidite a3 of Example 1 was stored in the dark at room temperature for 7 days. On the other hand, the solution containing the amidite a3′ of Patent Document 5 was stored in the dark at room temperature for 17 hours.
The UHPLC results of the amidites a3 and a3′ contained respectively in the stored solutions are shown in Tables 7 and 8, and the UHPLC-MS results of the amidites a3 and a3′ contained respectively in the stored solutions are shown in FIGS. 12 and 13.

Structure (SMILES): COc1ccc(C(OC[C@]23CN(/C(=N/C(=O)OCC4c5cc(C(C)(C)C)ccc5-c5ccc(C(C)(C)C)cc54)NC(C)(C)C)C(C2OP(OCCC#N)N(C(C)C)C(C)C)[C@H](n2cc(C)c(=O)[nH]c2=O)O3)(c2ccccc2)c2ccc(OC)cc2)cc1 (stereo partly drawn) [amidite a3, di-tBu-Fmoc-GuNA[t-Bu]-T amidite]
- % Area of main UHPLC peak after storage (stored for 7 days, retention time 7.335 min, purity before storage 96.3%): 95.21%
- Stability in stored solution, compared by UHPLC peaks (a3 stored 7 days versus a3′ stored 17 hours): more stable

Structure (SMILES): COc1ccc(C(OC[C@@]23CN(/C(=N/C(=O)OCC4c5ccccc5-c5ccccc54)NC(C)(C)C)C([C@H](n4cc(C)c(=O)[nH]c4=O)O2)[C@H]3OP(OCCC#N)N(C(C)C)C(C)C)(c2ccccc2)c2ccc(OC)cc2)cc1 (stereo partly drawn) [amidite a3′, reference compound]
- % Area of main UHPLC peak after storage (stored for 17 hours, retention time 5.866 min, purity before storage 90.9%): 76.00%
